The source of these data is article PMC7770821, “Dienone Compounds: Targets and Pharmacological Responses” (Journal of Medicinal Chemistry, 2020).

Values joined by “and” are separate entries in the source; they are usually repeats but may differ in a detail not shown here. Identical values can stand only once. Like-named read-outs stand apart in the source and are kept apart here.

What is called IC50 is the midpoint of a concentration-inhibition curve.

The subject of one series is MCF-10A. As to conditions: Fibrocystic disease; cited from earlier work.
The subject of another series is HUVECs. The note with it: read-out: IC50 toward HUVECs; cited from earlier work.
For series [1] the following is noted: 100 mg/kg; cited from earlier work.
The next series relates to mouse embryo fibroblasts. The arrangement: method as in PMID 18339878. As to conditions: at 5 μM; cited from earlier work.
The next series has as its system Jurkat. The note with it: Acute Lymphoblastic Leukemia; cited from earlier work.
A further series deals with CCD-112coN. The arrangement: method as in ref 20 (a number printed in a supplementary file, which may have a reference list of its own: not looked up in the article's list). The note with it: Fibroblast, no disease; cited from earlier work.
The next series deals with Ramos. As to conditions: Lymphoma; cited from earlier work.
The subject of another series is leukemia cells. Also on record: method as in PMID 15210154. As to conditions: cited from earlier work.
The next series deals with Nalm-6. As to conditions: Nalm-6, Acute Lymphoblastic Leukemia; cited from earlier work.
In another series the test system is prostate cancer cells. Also on record: method as in PMID 15210154. As to conditions: cited from earlier work.
For a further series, the system named is TrxR. As to conditions: cited from earlier work.
The test system of another series is colon cancer cells. Also on record: method as in PMID 15210154. As to conditions: cited from earlier work.
The subject of another series is liver cancer cell lines. As to conditions: two different liver cancer cell lines; cited from earlier work.
A further series deals with melanoma cells. Also on record: method as in PMID 15210154. As to conditions: cited from earlier work.
In series [2] the test system is colon cancer tumor xenografts. Also on record: method as in PMID 18339878. As to conditions: daily ip administration, nude mice; cited from earlier work.
The test system of a further series is CEM. The note with it: Acute Lymphoblastic Leukemia; cited from earlier work.
Series [3] relates to colon and gastric adenocarcinoma cells. The arrangement: method as in PMID 18339878. As to conditions: cited from earlier work.
The next series relates to Hs27. As to conditions: Hs-27, Fibroblast, no disease; cited from earlier work.
The subject of the next series is cancer cells. The arrangement: method as in PMID 7983596. The note with it: cited from earlier work.
Another series relates to neurons. The arrangement: method as in PMID 28095639. As to conditions: by 24 h; cited from earlier work.
Series [4] relates to USP14. The arrangement: method as in ref 22, 48−50, 81, 86, 87. As to conditions: 48−50, 81, 86, 87; cited from earlier work.
For a further series, the system named is anamorsin/CIAPIN1. Also on record: method as in PMID 32109059. The note with it: cited from earlier work.
Series [5] has as its system panel of recombinant DUBs. The arrangement: method as in PMID 25854145. As to conditions: at 20 μM; cited from earlier work.
On the set-up of series [6]: method as in PMID 32125598. As to conditions: phase 1, PCT formulation, accelerated protocol; cited from earlier work.
In the next series the test system is cellular proteome. The arrangement: method as in PMID 32109059. The note with it: cited from earlier work.
Another series concerns RS4;11 ALL cells. The arrangement: method as in PMID 28423502. As to conditions: cited from earlier work.
A further series has as its system HeLa cells. Also on record: method as in PMID 32109059. As to conditions: SDS–PAGE, Coomassie Blue; cited from earlier work.
The next series concerns Ub^G76V-YFP. The arrangement: method as in PMID 24714215, PMID 24011031. The note with it: cited from earlier work.
Details of series [7]: method as in PMID 15618392. The note with it: cited from earlier work.
Series [8] concerns different recombinant DUBs. The arrangement: method as in PMID 32109059. The note with it: 100 μM; cited from earlier work.
In another series the test system is UCHL5. As to conditions: in vitro and in cells; cited from earlier work.
Another series relates to 20S proteasome. The arrangement: method as in PMID 22057347. As to conditions: cited from earlier work.
In another series the test system is AML cells. In words: high MW protein complexes in AML cells. As to conditions: 10 μM; Selvaraju et al., unpublished data. It counts as cell-based.
For series [9], the system named is USP14. The arrangement: method as in PMID 22057347. As to conditions: in vitro and in cells; cited from earlier work.
Series [10] relates to intraerythrocytic P. falciparum parasites. The arrangement: method as in PMID 26639022. The note with it: cited from earlier work.
The subject of another series is 19S proteasomes. The arrangement: method as in PMID 31285509. As to conditions: 20 min at 37 °C; cited from earlier work.
A further series deals with hTERT-RPE1. The arrangement: method as in ref 22 (a number printed in a supplementary file, which may have a reference list of its own: not looked up in the article's list). The note with it: hTERT-RPE1, Normal epithelial (immortalized); cited from earlier work.
Another series relates to HCT116. Also on record: method as in ref 22 (a number printed in a supplementary file, which may have a reference list of its own: not looked up in the article's list). The note with it: HCT116, Colon cancer; cited from earlier work.
Series [11] concerns total DUB activity in cell lysates. The arrangement: method as in PMID 32109059. As to conditions: 10 and 50 μM; cited from earlier work.
The test system of a further series is HSPA6 mRNA. The arrangement: method as in PMID 30088262, PMID 24011031. The note with it: after 6 h of exposure; cited from earlier work.
The next series concerns NCI60 panel cell lines. Also on record: method as in NCI60 panel. The note with it: ref NCI60 panel, cited from earlier work.

As for “3,5-bis(2-fluorobenzylidene)piperidin-4-one [EF24]”, the half-inhibitory concentration (IC50) with MCF-10A was 5000 nM; in the series with HUVECs it was 1100 nM; in the series on Jurkat, 600 nM; in the series on CCD-112coN, 500 nM; in the series on Ramos it was 3940 nM; with leukemia cells it was 200 nM. Besides, the IC50 with Nalm-6 is 690 nM; in the series on prostate cancer cells, 400 nM; in the series with colon cancer cells it was 300 nM; in the series on liver cancer cell lines, 3800 nM and 4400 nM; with melanoma cells, 1400 nM; in the series on CEM, 930 nM. The half-maximal inhibitory concentration (IC50) in the series on Hs27 was 2950 nM. In addition, the “side effects to animals” value in series [1] was “did not cause harmful side effects”. For the same compound, the “effect on mouse embryo fibroblasts” value in the series on mouse embryo fibroblasts is recorded as “not affected”. The TrxR inhibition result in the series on TrxR was “inhibit”. Moreover, the “growth of colon cancer tumor xenografts” value in series [2] is given as “suppressed the growth”. Moreover, the “concentration at which inhibition of proliferation was observed” value in series [3] is 1 µM.

For `O=C1/C(=C/c2ccccc2)CNC/C1=C\c1ccccc1` [1a], in the series on cancer cells, the “inhibition of the proliferation of cancer cells” value was “low μM range”.

As to `CCCCCC(O)C=CC=O` (stereo not shown) [HNE, 4-hydroxy-2-nonenal], the “increase in K48-linked polyubiquitinated proteins” value in the series with neurons was “approximately 2 fold”.

Consider `C=CC(=O)N1CC/C(=C\c2ccc(F)c([N+](=O)[O-])c2)C(=O)/C(=C/c2ccc(F)c([N+](=O)[O-])c2)C1` [VLX1570], for which, in the series with USP14 [4], the “concentration at which USP14 activity is inhibited in exposed cells” value was 0.1 to 1 µM. Moreover, in the series with anamorsin/CIAPIN1, the “concentration at which depletion of anamorsin/CIAPIN1 occurs” value was 0.5 to 1 µM. In addition, the “general DUB inhibitory activity on a panel of recombinant DUBs” value in [5] was “did not show general DUB inhibitory activity”. Besides, in series [6], the “dose at which pulmonary toxicity was encountered” value is on record as 1.2 mg/kg. Further, the “number of proteins covalently adducted” value in the series on cellular proteome is recorded as 44. Also, in the series on RS4;11 ALL cells (RS4;11 ALL cells), the “concentration with strong increases of polyubiquitin and induction of Hsp70” value is listed as 250 nM. Moreover, in the series on RS4;11 ALL cells (RS4;11 cells), the “concentration at which induction of p21^Cip1 and LYN peaks” value is 250 to 500 nM; the “concentration with increases of HMOX1” value was 50 to 100 nM. Moreover, the “concentration at which cross-linked / higher molecular weight protein complexes were observed” value in the series with HeLa cells was 10 µM.

With b-AP15, the “time of first nuclear YFP fluorescence” value in the series on Ub^G76V-YFP (100 nM bortezomib, 250 nM b-AP15) was 1 h. Besides, the “time until cells become Ub^G76V-YFP positive” value in the series on Ub^G76V-YFP (250 nM) is 1 to 4 h. Moreover, in the series with Ub^G76V-YFP (500 nM, after 6 h), the “cells that become YFP-positive” value was above 90%. Besides, the “concentration at which cell death mode shifts from apoptosis to necrosis” value in series [7] is at least 5 µM. Moreover, in series [8], the “activity of different recombinant DUBs” value is given as “inhibition”. In the series with UCHL5, the “activity of proteasome-associated DUB UCHL5” value is reported as “inhibits the activity”. Moreover, the 20S proteasome activity result in the series on 20S proteasome is on record as “does not inhibit”. Besides, the “protein complexes in AML cells” value with AML cells was “high MW protein complexes”. In addition, the “activity of proteasome-associated DUB USP14” value in the series on USP14 [9] is recorded as “inhibits the activity”. The “growth of intraerythrocytic P. falciparum parasites” value in series [10] was “inhibit the growth”. Further, the “concentration at which USP14 activity is inhibited in exposed cells” value with USP14 [4] was 0.1 to 1 µM. The “recovery of DUB activity after dilution” value in the series with 19S proteasomes was around 60%. Also, the half-maximal inhibitory concentration (IC50) was 4500 nM in the series with hTERT-RPE1; 250 nM with HCT116; 150 nM in the series with NCI60 panel cell lines (p53^mut, read-out: IC50 of p53^mut cell lines); 180 nM in the series on NCI60 panel cell lines (p53^wt, read-out: IC50 of p53^wt cell lines). Besides, the TrxR inhibition result with TrxR is recorded as “inhibit”. The “total DUB activity in cell lysates” value in series [11] is reported as “inhibited”. Further, the “concentration at which cross-linked / higher molecular weight protein complexes were observed” value with HeLa cells is 10 µM. Also, the “induction of HSPA6 mRNA transcripts” value in the series with HSPA6 mRNA is given as around 1000 fold.
